Test results as given in ChEMBL document CHEMBL1201862, “PubChem BioAssay data set” (2004).
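Tested at 5 concentrations; 48 h exposure; 96-well plates; endpoints linearly interpolated, else capped at highest concentration. GI50 = concentration required for 50% inhibition of growth.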 Active and inactive are the calls of the source. No stated cut-off is given here; in the data, active = GI50 up to about 1.1 µM and inactive = higher.

Tests used:
Assay in all cases: NCI anticancer screen, dose series, 48 h
IGROV-1 = test system: IGROV-1
M14 = test system: M14
786-0 = test system: 786-0
SK-MEL-5 = test system: SK-MEL-5
SF-295 = test system: SF-295
COLO 205 = test system: COLO 205
KM12 = test system: KM12
SNB-19 = test system: SNB-19
BT-549 = test system: BT-549
SR = test system: SR
RXF 393 = test system: RXF 393
U-251 = test system: U-251
DU-145 = test system: DU-145
CAKI-1 = test system: CAKI-1
HOP-92 = test system: HOP-92
SK-MEL-2 = test system: SK-MEL-2
OVCAR-3 = test system: OVCAR-3
Hs-578T = test system: Hs-578T
SNB-75 = test system: SNB-75

Measured: GI50

CC(C)(C)OC(=O)CCC1NC(=O)[C@@H]2Cc3c([nH]c4ccccc34)C(C3CCCCC3)N2C1=O (some centres not stated)
inactive: IGROV-1 36.8 µM | M14 27.4 µM | 786-0 35.3 µM | SK-MEL-5 31 µM | SF-295 23.1 µM | COLO 205 17.9 µM | KM12 24.9 µM | SNB-19 41.9 µM | BT-549 48.8 µM | SR 15.5 µM | RXF 393 20 µM | U-251 27 µM | DU-145 57.3 µM | CAKI-1 37.1 µM | HOP-92 33.2 µM | SK-MEL-2 22.8 µM | OVCAR-3 26.2 µM | Hs-578T 20.8 µM

CC(=N/NC(N)=S)/C(C)=N/NC(N)=S
inactive: IGROV-1 > 100 µM | M14 > 100 µM | 786-0 > 100 µM | SK-MEL-5 > 100 µM | COLO 205 > 100 µM | KM12 > 100 µM | SNB-19 > 100 µM | BT-549 > 100 µM | SR > 100 µM | RXF 393 > 100 µM | DU-145 > 100 µM | SNB-75 > 100 µM | SK-MEL-2 > 100 µM | OVCAR-3 > 100 µM | Hs-578T > 100 µM

CCCCCCOc1ccc(C(=O)NOC)cc1
inactive: IGROV-1 > 100 µM | M14 > 100 µM | 786-0 > 100 µM | SK-MEL-5 > 100 µM | SF-295 > 100 µM | COLO 205 > 100 µM | KM12 > 100 µM | SNB-19 > 100 µM | BT-549 82.8 µM | SR 62.5 µM | RXF 393 > 100 µM | U-251 > 100 µM | DU-145 > 100 µM | CAKI-1 96.8 µM | SNB-75 > 100 µM | HOP-92 > 100 µM | SK-MEL-2 > 100 µM | OVCAR-3 > 100 µM | Hs-578T > 100 µM

COC(=O)C1CCOC(C)N1C(=O)OC(C)(C)C (configuration not stated)
inactive: IGROV-1 > 100 µM | M14 > 100 µM | 786-0 > 100 µM | SK-MEL-5 > 100 µM | SF-295 > 100 µM | COLO 205 > 100 µM | KM12 > 100 µM | SNB-19 > 100 µM | BT-549 > 100 µM | SR > 100 µM | RXF 393 > 100 µM | U-251 > 100 µM | DU-145 > 100 µM | CAKI-1 > 100 µM | SNB-75 > 100 µM | SK-MEL-2 > 100 µM | OVCAR-3 > 100 µM | Hs-578T > 100 µM

CCN(CC)CCCC(C)Nc1cc(/C=C/c2ccc(Cl)cc2)nc2cc(N(C)C)ccc12 (configuration not stated)
inactive: IGROV-1 2 µM | M14 1.61 µM | 786-0 2.92 µM | SK-MEL-5 2.01 µM | SF-295 1.9 µM | KM12 1.7 µM | SNB-19 1.82 µM | BT-549 1.65 µM | SR 1.25 µM | RXF 393 1.61 µM | U-251 1.64 µM | DU-145 1.66 µM | HOP-92 1.74 µM | OVCAR-3 1.7 µM | Hs-578T 2.37 µM

Nc1ccc2nc3n(c(=O)c2c1)CCCCC3
inactive: IGROV-1 > 100 µM | M14 > 100 µM | 786-0 > 100 µM | SK-MEL-5 > 100 µM | SF-295 > 100 µM | COLO 205 > 100 µM | KM12 > 100 µM | BT-549 89.9 µM | SR > 100 µM | RXF 393 > 100 µM | U-251 > 100 µM | DU-145 > 100 µM | CAKI-1 > 100 µM | SNB-75 > 100 µM | HOP-92 > 100 µM | SK-MEL-2 > 100 µM | OVCAR-3 > 100 µM | Hs-578T > 100 µM

CC(=O)c1[nH]c(NC(C)C)c(C(=S)Nc2ccccc2)c1N
inactive: IGROV-1 26.4 µM | M14 19.8 µM | 786-0 24.3 µM | SK-MEL-5 18.3 µM | SF-295 38.1 µM | COLO 205 27.9 µM | KM12 29.6 µM | SNB-19 27.8 µM | BT-549 30.5 µM | SR 23.7 µM | RXF 393 18.4 µM | DU-145 26.7 µM | CAKI-1 32.9 µM | SNB-75 > 100 µM | HOP-92 17.7 µM | SK-MEL-2 17.9 µM | OVCAR-3 32.1 µM | Hs-578T 36 µM

O=S(=O)(c1ccccc1)[C@@H]1[C@H]2C=C[C@](CS)(O2)[C@H]1S(=O)(=O)c1ccccc1
inactive: IGROV-1 > 100 µM | M14 > 100 µM | 786-0 30 µM | SK-MEL-5 > 100 µM | SF-295 > 100 µM | COLO 205 79.3 µM | KM12 > 100 µM | SNB-19 > 100 µM | BT-549 35.2 µM | SR 25.6 µM | RXF 393 43.6 µM | U-251 > 100 µM | DU-145 > 100 µM | CAKI-1 31.6 µM | SNB-75 67.5 µM | HOP-92 > 100 µM | OVCAR-3 19.1 µM | Hs-578T > 100 µM

CC(=O)C1(O)CCC2(O)C3(O)CC=C4CC(O)CCC4(C)C3CC(OC(=O)c3ccc(O)cc3)C12C (configuration not stated)
inactive: IGROV-1 > 100 µM | M14 > 100 µM | 786-0 > 100 µM | SK-MEL-5 > 100 µM | SF-295 > 100 µM | COLO 205 > 100 µM | KM12 > 100 µM | SNB-19 > 100 µM | BT-549 > 100 µM | SR > 100 µM | U-251 > 100 µM | DU-145 > 100 µM | CAKI-1 > 100 µM | SNB-75 > 100 µM | HOP-92 > 100 µM | SK-MEL-2 > 100 µM | OVCAR-3 > 100 µM | Hs-578T > 100 µM

C=CC(=C)CCC(Br)C(C)(C)Br (configuration not stated)
inactive: IGROV-1 80.7 µM | M14 75.9 µM | 786-0 99.1 µM | SK-MEL-5 > 100 µM | SF-295 > 100 µM | COLO 205 74 µM | KM12 > 100 µM | SNB-19 > 100 µM | BT-549 > 100 µM | SR > 100 µM | RXF 393 > 100 µM | U-251 > 100 µM | DU-145 > 100 µM | SNB-75 > 100 µM | HOP-92 91.2 µM | SK-MEL-2 > 100 µM | OVCAR-3 > 100 µM | Hs-578T > 100 µM

COC(=O)C(NC(=O)c1ccccc1)c1ccco1 (configuration not stated)
inactive: IGROV-1 > 100 µM | M14 > 100 µM | 786-0 > 100 µM | SK-MEL-5 > 100 µM | SF-295 > 100 µM | KM12 > 100 µM | SNB-19 > 100 µM | BT-549 > 100 µM | SR > 100 µM | RXF 393 > 100 µM | U-251 > 100 µM | DU-145 > 100 µM | SNB-75 > 100 µM | HOP-92 > 100 µM | OVCAR-3 > 100 µM | Hs-578T > 100 µM

C=CCOC(=O)C1C2OC3(C(C(=O)OC)=C2C(=O)OC)c2ccccc2CCC13 (configuration not stated)
inactive: IGROV-1 > 10 µM | M14 > 10 µM | 786-0 > 10 µM | SK-MEL-5 > 10 µM | SF-295 > 10 µM | COLO 205 > 10 µM | KM12 > 10 µM | SNB-19 > 10 µM | BT-549 > 10 µM | SR > 10 µM | RXF 393 > 10 µM | U-251 > 10 µM | DU-145 > 10 µM | CAKI-1 > 10 µM | SK-MEL-2 > 10 µM | OVCAR-3 > 10 µM | Hs-578T > 10 µM

C=C(C)[C@@H]1CC[C@]2(C)CC[C@]3(C)[C@H](CC[C@@H]4[C@@]5(C)CC[C@H](OC(=O)c6ccccc6)C(C)(C)[C@@H]5CC[C@]43C)[C@@H]12
inactive: IGROV-1 > 100 µM | M14 > 100 µM | 786-0 > 100 µM | SK-MEL-5 > 100 µM | SF-295 > 100 µM | COLO 205 > 100 µM | KM12 > 100 µM | SNB-19 > 100 µM | BT-549 > 100 µM | SR 48.2 µM | U-251 > 100 µM | DU-145 > 100 µM | CAKI-1 > 100 µM | SNB-75 90.8 µM | HOP-92 > 100 µM | SK-MEL-2 > 100 µM | OVCAR-3 > 100 µM | Hs-578T > 100 µM

COc1c(O)cc2oc(-c3ccc(O)cc3)cc(=O)c2c1O [HISPIDULIN]
inactive: IGROV-1 22.7 µM | M14 38.6 µM | 786-0 60.1 µM | SK-MEL-5 15.5 µM | SF-295 44.1 µM | COLO 205 90.4 µM | KM12 31.5 µM | SNB-19 56.1 µM | BT-549 28.3 µM | SR 27.9 µM | RXF 393 51.5 µM | U-251 42.7 µM | DU-145 30.5 µM | SNB-75 17.3 µM | HOP-92 2.91 µM | SK-MEL-2 27.2 µM | OVCAR-3 44.1 µM | Hs-578T 18.9 µM

COc1c2c(cc3oc(=O)ccc13)OC(C)(C)C=C2 [XANTHOXYLETIN]
inactive: IGROV-1 27.6 µM | M14 25.1 µM | 786-0 22.4 µM | SK-MEL-5 21.8 µM | SF-295 34.1 µM | COLO 205 25.4 µM | KM12 19.2 µM | SNB-19 35.6 µM | BT-549 25.6 µM | SR 11.5 µM | U-251 24.9 µM | DU-145 20.4 µM | CAKI-1 2.26 µM | SNB-75 22 µM | HOP-92 7.29 µM | SK-MEL-2 23 µM | OVCAR-3 37.9 µM | Hs-578T 29.9 µM
